What was measured:
DLD-1 = assay: Cytotoxic activity against DLD1 colon cancer cell line; assay type: functional, cell-based; conditions: Homo sapiens
MCF7 [1] = assay: Cytotoxic activity against MCF breast cancer cell line; assay type: functional, cell-based; conditions: Homo sapiens
WI-38 = assay: Cytotoxic activity against WI38 normal fibroblast cell line; na=Not active; assay type: functional, cell-based, Homo sapiens
HONE1 cell line = assay: Cytotoxic activity against HONE1 nasopharyngeal carcinoma cell line; assay type: functional, cell-based; conditions: Homo sapiens
HepG2 = assay: Cytotoxic activity against HepG2 liver cancer cell line; assay type: functional, cell-based; conditions: Homo sapiens
HA22T cell line [2] = assay: Cytotoxic activity against HA22T liver cancer cell line; assay type: functional, cell-based; conditions: Homo sapiens
NUGC = assay: Cytotoxic activity against NUGC gastric cancer cell line; assay type: functional, cell-based; conditions: Homo sapiens, Stomach
HA22T cell line [3] = assay: Cytotoxic activity against HA22T liver cancer cell line; na=Not active; assay type: functional, cell-based, Homo sapiens
MCF7 [4] = assay: Cytotoxic activity against MCF breast cancer cell line; na=Not active; assay type: functional, cell-based, Homo sapiens

Compound	IC50 (DLD-1) [µM]	IC50 (MCF7 [1]) [µM]	IC50 (WI-38)	IC50 (HONE1 cell line) [µM]	IC50 (HepG2) [µM]	IC50 (HA22T cell line [2]) [µM]	IC50 (NUGC) [µM]	IC50 (HA22T cell line [3])	IC50 (MCF7 [4])
N#C/N=C1\N(CCCCCCCOc2ccc(Cl)cc2)C(=O)C(c2ccccc2)N1c1ccncc1 (configuration not stated)	0.29	1.17	Not Active	0.398	0.38	0.831	3.35	–	–
N#C/N=C1\N(CCCCCCOc2ccc(Cl)cc2)C(=O)C(c2ccccc2)N1c1ccncc1 (configuration not stated)	0.037	1.13	Not Active	0.337	0.044	0.526	3.34	–	–
CC1C(=O)N(CCCCCCOc2ccc(Cl)cc2)/C(=N\C#N)N1c1ccncc1 (configuration not stated)	0.333	0.27	Not Active	0.303	0.282	0.382	0.214	–	–
CCC1C(=O)N(CCCCCCOc2ccc(Cl)cc2)/C(=N\C#N)N1c1ccncc1 (configuration not stated)	3.56	6.91	Not Active	3.87	4.35	5.13	0.406	–	–
CC1C(=O)N(CCCCCOc2ccc(Cl)cc2)/C(=N\C#N)N1c1ccncc1 (configuration not stated)	4.11	9.26	Not Active	3.68	4.09	–	1.78	Not Active	–
N#C/N=C1\N(CCCCCOc2ccc(Cl)cc2)C(=O)CCN1c1ccncc1	6.74	5.46	Not Active	3.45	2.83	–	3.12	Not Active	–
N#C/N=C1\N(CCCCCOc2ccc(Cl)cc2)C(=O)C(c2ccccc2)N1c1ccncc1 (configuration not stated)	0.337	1	Not Active	0.373	0.415	3.59	3.45	–	–
CC1C(=O)N(CCCCCCCOc2ccc(Cl)cc2)/C(=N\C#N)N1c1ccncc1 (configuration not stated)	0.37	0.46	Not Active	0.371	0.359	0.688	1.25	–	–
N#C/N=C1\N(CCCCCCCOc2ccc(Cl)cc2)C(=O)CN1c1ccncc1	3.34	0.815	Not Active	3.24	2.74	3.5	0.926	–	–
N#C/N=C1\N(CCCCCCOc2ccc(Cl)cc2)C(=O)CCN1c1ccncc1	0.565	0.454	Not Active	0.577	0.344	3.04	0.288	–	–
N#C/N=C1\N(CCCCCCOc2ccc(Cl)cc2)C(=O)CN1c1ccncc1	3.44	0.443	Not Active	2.96	0.392	3.86	0.386	–	–
N#C/N=C1\N(CCCCCCCOc2ccc(Cl)cc2)C(=O)CCN1c1ccncc1	3.2	6.84	Not Active	3.44	4	7.56	1.1	–	–
N#C/N=C1\N(CCCCCOc2ccc(Cl)cc2)C(=O)CN1c1ccncc1	3.8	5.36	Not Active	3.4	4.2	8.97	2.76	–	–
CCC1C(=O)N(CCCCCCCOc2ccc(Cl)cc2)/C(=N\C#N)N1c1ccncc1 (configuration not stated)	3.53	4.54	Not Active	3.23	3.45	6.05	1.28	–	–
CCC1C(=O)N(CCCCCOc2ccc(Cl)cc2)/C(=N\C#N)N1c1ccncc1 (configuration not stated)	4.08	–	Not Active	4.83	4.32	–	3.04	Not Active	Not Active
N#CN=C(NCCCCCCOc1ccc(Cl)cc1)Nc1ccncc1 [CHS-828]	2.31	0.018	Not Active	0.015	1.25	2.07	0.025	–	–
